Experimental data taken from publication PMC10178848, “Modulating fast skeletal muscle contraction protects skeletal muscle in animal models of Duchenne muscular dystrophy” (The Journal of Clinical Investigation, 2023).

Test system: GRMD plasma proteins
Type: in vivo, dog
Details: Post-Treatment to GRMD baseline; Increased in GRMD

O=c1ccc(-c2cnc(OCC(F)(F)F)nc2)nn1Cc1cncc(F)c1 [EDG-5506]
Change from GRMD Baseline (fraction): Apolipoprotein E (isoform E3) (APOE): 0.08 fraction
Change from GRMD Baseline (fraction): Apolipoprotein E (isoform E4) (APOE): 0.1456 fraction
Change from GRMD Baseline (fraction): Apoptosis regulator Bcl-2 (BCL2): 0.0105 fraction
Change from GRMD Baseline (fraction): Artemin (ARTN): -0.0439 fraction
Change from GRMD Baseline (fraction): Arylsulfatase B (ARSB): -0.1402 fraction
Change from GRMD Baseline (fraction): B-cell receptor CD22 (CD22): -0.069 fraction
Change from GRMD Baseline (fraction): Baculoviral IAP repeat-containing protein 5 (BIRC5): 0.0116 fraction
Change from GRMD Baseline (fraction): Basal Cell Adhesion Molecule (BCAM): -0.0408 fraction
Change from GRMD Baseline (fraction): Bcl-2-like protein 1 (BCL2L1): 0.0111 fraction
Change from GRMD Baseline (fraction): Bone sialoprotein 2 (IBSP): -0.0621 fraction
Change from GRMD Baseline (fraction): C-C motif chemokine 13 (CCL13): -0.0609 fraction
Change from GRMD Baseline (fraction): C-C motif chemokine 23 (CCL23): -0.0197 fraction
Change from GRMD Baseline (fraction): CCAAT/enhancer-binding protein beta (CEBPB): -0.0884 fraction
Change from GRMD Baseline (fraction): CD59 glycoprotein (CD59): 0.0101 fraction
Change from GRMD Baseline (fraction): Calcineurin (PPP3CA PPP3R1): -0.1169 fraction
Change from GRMD Baseline (fraction): Calcineurin subunit B type 1 (PPP3R1): 0.0394 fraction
Change from GRMD Baseline (fraction): Calcium/calmodulin-dependent protein kinase type 1 (CAMK1): -0.0409 fraction
Change from GRMD Baseline (fraction): Calcium/calmodulin-dependent protein kinase type 1D (CAMK1D): -0.0326 fraction
Change from GRMD Baseline (fraction): Calcium/calmodulin-dependent protein kinase type II subunit alpha (CAMK2A): -0.2874 fraction
Change from GRMD Baseline (fraction): Calcium/calmodulin-dependent protein kinase type II subunit beta (CAMK2B): -0.2753 fraction
Change from GRMD Baseline (fraction): Calcium/calmodulin-dependent protein kinase type II subunit delta (CAMK2D): -0.216 fraction
Change from GRMD Baseline (fraction): Calpain I (CAPN1 CAPNS1): 0.0953 fraction
Change from GRMD Baseline (fraction): Calpastatin (CAST): -0.0561 fraction
Change from GRMD Baseline (fraction): Carbonic anhydrase 3 (CA3): -0.1807 fraction
Change from GRMD Baseline (fraction): Cardiotrophin-1 (CTF1): -0.0345 fraction
Change from GRMD Baseline (fraction): Catalase (CAT): -0.0112 fraction
Change from GRMD Baseline (fraction): Choline/ethanolamine kinase (CHKB): -0.0392 fraction
Change from GRMD Baseline (fraction): Chymase (CMA1): -0.0173 fraction
Change from GRMD Baseline (fraction): Clusterin (CLU): 0.1057 fraction
Change from GRMD Baseline (fraction): Complement component C6 (C6): 0.2667 fraction
Change from GRMD Baseline (fraction): Complement component C8 (C8A C8B C8G): 0.004 fraction
Change from GRMD Baseline (fraction): Complement factor D (CFD): 0.0267 fraction
Change from GRMD Baseline (fraction): Creatine kinase M-type (CKM): -0.092 fraction
Change from GRMD Baseline (fraction): Creatine kinase M-type:Creatine kinase B-type heterodimer (CKB CKM): -0.1124 fraction
Change from GRMD Baseline (fraction): Cyclin-dependent kinase inhibitor 1B (CDKN1B): -0.1243 fraction
Change from GRMD Baseline (fraction): Cysteine and glycine-rich protein 3 (CSRP3): -0.1208 fraction
Change from GRMD Baseline (fraction): Cytochrome c (CYCS): -0.3895 fraction
Change from GRMD Baseline (fraction): DNA repair protein RAD51 homolog 1 (RAD51): 0.0454 fraction
Change from GRMD Baseline (fraction): Desmoglein-1 (DSG1): 0.0063 fraction
Change from GRMD Baseline (fraction): Dickkopf-like protein 1 (DKKL1): -0.0126 fraction
Change from GRMD Baseline (fraction): Down syndrome cell adhesion molecule (DSCAM): -0.0254 fraction
Change from GRMD Baseline (fraction): Dual specificity mitogen-activated protein kinase kinase 1 (MAP2K1): -0.2424 fraction
Change from GRMD Baseline (fraction): Dual specificity protein phosphatase 3 (DUSP3): -0.1403 fraction
Change from GRMD Baseline (fraction): Dynein light chain roadblock-type 1 (DYNLRB1): -0.3202 fraction
Change from GRMD Baseline (fraction): Ectonucleoside triphosphate diphosphohydrolase 1 (ENTPD1): -0.0389 fraction
Change from GRMD Baseline (fraction): Endothelin-converting enzyme 1 (ECE1): -0.0078 fraction
Change from GRMD Baseline (fraction): Ephrin type-A receptor 1 (EPHA1): -0.0034 fraction
Change from GRMD Baseline (fraction): Ephrin type-B receptor 6 (EPHB6): 0.0412 fraction
Change from GRMD Baseline (fraction): Epidermal growth factor (EGF): -0.0427 fraction
Change from GRMD Baseline (fraction): Epidermal growth factor receptor variant III (EGFR): -0.0407 fraction
Change from GRMD Baseline (fraction): Erythropoietin receptor (EPOR): -0.0103 fraction
Change from GRMD Baseline (fraction): Estrogen receptor (ESR1): -0.0238 fraction
Change from GRMD Baseline (fraction): Eukaryotic translation initiation factor 4H (EIF4H): -0.3775 fraction
Change from GRMD Baseline (fraction): Eukaryotic translation initiation factor 4 gamma 2 (EIF4G2): -0.2701 fraction
Change from GRMD Baseline (fraction): Extracellular matrix protein 1 (ECM1): 0.014 fraction
Change from GRMD Baseline (fraction): Fibroblast growth factor 8 isoform B (FGF8): -0.0376 fraction
Change from GRMD Baseline (fraction): Fibroblast growth factor 9 (FGF9): -0.0507 fraction
Change from GRMD Baseline (fraction): Fibronectin Fragment 4 (FN1): -0.0265 fraction
Change from GRMD Baseline (fraction): Follistatin (FST): -0.0231 fraction
Change from GRMD Baseline (fraction): Fractalkine (CX3CL1): 0.0106 fraction
